Reference: ChEMBL document CHEMBL1671626, “In vitro profiling of ceftaroline against a collection of recent bacterial clinical isolates from across the United States” (2008)
≈ marks a conversion by molar mass, not a printed value.

How the values were obtained:
Type in all cases: functional
[1] = tested on: Staphylococcus aureus; assay: Antibacterial activity against methicillin-susceptible Staphylococcus aureus by CLSI M7-A7 broth microdilution method
[2] = tested on: Proteus mirabilis; assay: Antibacterial activity against ceftazidime-susceptible Proteus mirabilis assessed as resistant isolates by CLSI M7-A7 broth microdilution method
[3] = tested on: Streptococcus pneumoniae; assay: Antibacterial activity against penicillin-susceptible Streptococcus pneumoniae assessed as resistant isolates by CLSI M7-A7 broth microdilution method
[4] = tested on: Morganella morganii; assay: Antibacterial activity against ceftazidime-susceptible Morganella morganii by CLSI M7-A7 broth microdilution method
[5] = tested on: Proteus mirabilis; assay: Antibacterial activity against ceftazidime-susceptible Proteus mirabilis by CLSI M7-A7 broth microdilution method
[6] = tested on: Enterobacter cloacae; assay: Antibacterial activity against ceftazidime-nonsusceptible Enterobacter cloacae by CLSI M7-A7 broth microdilution method
[7] = tested on: Streptococcus pneumoniae; assay: Antibacterial activity against penicillin-resistant Streptococcus pneumoniae assessed as resistant isolates by CLSI M7-A7 broth microdilution method
[8] = tested on: Streptococcus agalactiae; assay: Antibacterial activity against erythromycin-nonsusceptible Streptococcus agalactiae by CLSI M7-A7 broth microdilution method
[9] = tested on: Streptococcus pneumoniae; assay: Antibacterial activity against penicillin-susceptible Streptococcus pneumoniae assessed as susceptible isolates by CLSI M7-A7 broth microdilution method
[10] = tested on: Klebsiella pneumoniae; assay: Antibacterial activity against ceftazidime-nonsusceptible Klebsiella pneumoniae by CLSI M7-A7 broth microdilution method
[11] = tested on: Enterococcus faecalis; assay: Antibacterial activity against vancomycin-resistant Enterococcus faecalis by CLSI M7-A7 broth microdilution method
[12] = tested on: Escherichia coli; assay: Antibacterial activity against ceftazidime-susceptible Escherichia coli assessed as susceptible isolates by CLSI M7-A7 broth microdilution method
[13] = tested on: Citrobacter freundii; assay: Antibacterial activity against ceftazidime-susceptible Citrobacter freundii assessed as susceptible isolates by CLSI M7-A7 broth microdilution method
[14] = tested on: Enterococcus faecium; assay: Antibacterial activity against vancomycin-resistant Enterococcus faecium by CLSI M7-A7 broth microdilution method
[15] = tested on: Citrobacter freundii; assay: Antibacterial activity against ceftazidime-susceptible Citrobacter freundii by CLSI M7-A7 broth microdilution method
[16] = tested on: Haemophilus influenzae; assay: Antibacterial activity against beta lactamase-positive Haemophilus influenzae by CLSI M7-A7 broth microdilution method
[17] = tested on: Citrobacter freundii; assay: Antibacterial activity against ceftazidime-nonsusceptible Citrobacter freundii assessed as resistant isolates by CLSI M7-A7 broth microdilution method
[18] = tested on: Acinetobacter; assay: Antibacterial activity against multidrug-resistant Acinetobacter assessed as resistant isolates by CLSI M7-A7 broth microdilution method
[19] = tested on: Acinetobacter; assay: Antibacterial activity against multidrug-resistant Acinetobacter by CLSI M7-A7 broth microdilution method
[20] = tested on: Enterobacteriaceae; assay: Antibacterial activity against ceftazidime-susceptible Enterobacteriaceae assessed as resistant isolates by CLSI M7-A7 broth microdilution method
[21] = tested on: Klebsiella pneumoniae; assay: Antibacterial activity against ceftazidime-nonsusceptible Klebsiella pneumoniae assessed as resistant isolates by CLSI M7-A7 broth microdilution method
[22] = tested on: Providencia sp.; assay: Antibacterial activity against ceftazidime-susceptible Providencia sp. assessed as susceptible isolates by CLSI M7-A7 broth microdilution method
[23] = tested on: Enterobacteriaceae; assay: Antibacterial activity against ceftazidime-nonsusceptible Enterobacteriaceae by CLSI M7-A7 broth microdilution method
[24] = tested on: Escherichia coli; assay: Antibacterial activity against ceftazidime-nonsusceptible Escherichia coli assessed as resistant isolates by CLSI M7-A7 broth microdilution method
[25] = tested on: Citrobacter freundii; assay: Antibacterial activity against ceftazidime-susceptible Citrobacter freundii assessed as resistant isolates by CLSI M7-A7 broth microdilution method
[26] = tested on: Staphylococcus aureus; assay: Antibacterial activity against methicillin-resistant Staphylococcus aureus assessed as susceptible isolates by CLSI M7-A7 broth microdilution method
[27] = tested on: Enterobacter cloacae; assay: Antibacterial activity against ceftazidime-nonsusceptible Enterobacter cloacae assessed as resistant isolates by CLSI M7-A7 broth microdilution method
[28] = tested on: Pasteurella multocida; assay: Antibacterial activity against Pasteurella multocida by CLSI M7-A7 broth microdilution method
[29] = tested on: Enterobacteriaceae; assay: Antibacterial activity against ceftazidime-susceptible Enterobacteriaceae by CLSI M7-A7 broth microdilution method
[30] = tested on: Streptococcus viridans; assay: Antibacterial activity against penicillin-nonsusceptible Streptococcus viridans by CLSI M7-A7 broth microdilution method
[31] = tested on: Haemophilus influenzae; assay: Antibacterial activity against beta lactamase-positive Haemophilus influenzae assessed as susceptible isolates by CLSI M7-A7 broth microdilution method
[32] = tested on: Serratia marcescens; assay: Antibacterial activity against ceftazidime-susceptible Serratia marcescens assessed as resistant isolates by CLSI M7-A7 broth microdilution method
[33] = tested on: Escherichia coli; assay: Antibacterial activity against ceftazidime-nonsusceptible Escherichia coli by CLSI M7-A7 broth microdilution method
[34] = tested on: Streptococcus pyogenes; assay: Antibacterial activity against erythromycin-nonsusceptible Streptococcus pyogenes by CLSI M7-A7 broth microdilution method
[35] = tested on: Streptococcus pneumoniae; assay: Antibacterial activity against penicillin-resistant Streptococcus pneumoniae by CLSI M7-A7 broth microdilution method
[36] = tested on: Staphylococcus aureus; assay: Antibacterial activity against methicillin-resistant Staphylococcus aureus by CLSI M7-A7 broth microdilution method
[37] = tested on: Providencia sp.; assay: Antibacterial activity against ceftazidime-susceptible Providencia sp. assessed as resistant isolates by CLSI M7-A7 broth microdilution method
[38] = tested on: Citrobacter freundii; assay: Antibacterial activity against ceftazidime-nonsusceptible Citrobacter freundii assessed as susceptible isolates by CLSI M7-A7 broth microdilution method
[39] = tested on: Enterobacteriaceae; assay: Antibacterial activity against ceftazidime-nonsusceptible Enterobacteriaceae assessed as susceptible isolates by CLSI M7-A7 broth microdilution method
[40] = tested on: Enterobacter cloacae; assay: Antibacterial activity against ceftazidime-susceptible Enterobacter cloacae assessed as resistant isolates by CLSI M7-A7 broth microdilution method
[41] = tested on: Morganella morganii; assay: Antibacterial activity against ceftazidime-susceptible Morganella morganii assessed as susceptible isolates by CLSI M7-A7 broth microdilution method
[42] = tested on: Serratia marcescens; assay: Antibacterial activity against ceftazidime-susceptible Serratia marcescens assessed as susceptible isolates by CLSI M7-A7 broth microdilution method
[43] = tested on: Haemophilus influenzae; assay: Antibacterial activity against beta lactamase-negative Haemophilus influenzae by CLSI M7-A7 broth microdilution method
[44] = tested on: Enterobacter cloacae; assay: Antibacterial activity against ceftazidime-nonsusceptible Enterobacter cloacae assessed as susceptible isolates by CLSI M7-A7 broth microdilution method
[45] = tested on: Moraxella catarrhalis; assay: Antibacterial activity against beta lactamase-positive Moraxella catarrhalis assessed as susceptible isolates by CLSI M7-A7 broth microdilution method

C[C@@H](O)[C@H]1C(=O)N2C(C(=O)O)=C(SCCNC=N)C[C@H]12 [IMIPENEM ANHYDROUS]
MIC [1]: ≤ 0.12 µg/mL
MIC50 [1]: ≤ 0.12 µg/mL
MIC90 [1]: ≤ 0.12 µg/mL
Activity [2]: 0%
Activity [3]: 0.5%
MIC50 [4]: 2 µg/mL (≈ 6.68 µM)
MIC90 [4]: 2 µg/mL (≈ 6.68 µM)
MIC50 [5]: 2 µg/mL (≈ 6.68 µM)
MIC90 [5]: 4 µg/mL (≈ 13.4 µM)
MIC50 [6]: 0.25 µg/mL (≈ 0.835 µM)
MIC90 [6]: 0.25 µg/mL (≈ 0.835 µM)
Activity [7]: 10.8%
MIC [8]: ≤ 0.015 µg/mL
MIC50 [8]: ≤ 0.015 µg/mL
MIC90 [8]: 0.03 µg/mL (≈ 0.1 µM)
Activity [9]: 96.5%
MIC50 [10]: 0.12 µg/mL (≈ 0.401 µM)
MIC90 [10]: 16 µg/mL (≈ 53.4 µM)
MIC50 [11]: 1 µg/mL (≈ 3.34 µM)
MIC90 [11]: 2 µg/mL (≈ 6.68 µM)
Activity [12]: 100%
Activity [13]: 100%
MIC [14]: > 16 µg/mL
MIC50 [14]: > 16 µg/mL
MIC90 [14]: > 16 µg/mL
MIC50 [15]: 0.5 µg/mL (≈ 1.67 µM)
MIC90 [15]: 1 µg/mL (≈ 3.34 µM)
MIC50 [16]: 0.12 µg/mL (≈ 0.401 µM)
MIC90 [16]: 0.5 µg/mL (≈ 1.67 µM)
Activity [17]: 0%
Activity [18]: 31.3%
MIC50 [19]: 0.5 µg/mL (≈ 1.67 µM)
MIC90 [19]: 32 µg/mL (≈ 107 µM)
Activity [20]: 0%
Activity [21]: 10.6%
Activity [22]: 100%
MIC50 [23]: 0.25 µg/mL (≈ 0.835 µM)
MIC90 [23]: 4 µg/mL (≈ 13.4 µM)
Activity [24]: 3.2%
Activity [25]: 0%
Activity [26]: 84.6%
Activity [27]: 2.9%
MIC50 [28]: 0.25 µg/mL (≈ 0.835 µM)
MIC90 [28]: 2 µg/mL (≈ 6.68 µM)
MIC50 [29]: 0.25 µg/mL (≈ 0.835 µM)
MIC90 [29]: 1 µg/mL (≈ 3.34 µM)
MIC50 [30]: 0.06 µg/mL (≈ 0.2 µM)
MIC90 [30]: 1 µg/mL (≈ 3.34 µM)
Activity [31]: 100%
Activity [32]: 0%
MIC50 [33]: 0.25 µg/mL (≈ 0.835 µM)
MIC90 [33]: 1 µg/mL (≈ 3.34 µM)
MIC [34]: ≤ 0.015 µg/mL
MIC50 [34]: ≤ 0.015 µg/mL
MIC90 [34]: ≤ 0.015 µg/mL
MIC50 [35]: 0.25 µg/mL (≈ 0.835 µM)
MIC90 [35]: 1 µg/mL (≈ 3.34 µM)
MIC50 [36]: 0.25 µg/mL (≈ 0.835 µM)
MIC90 [36]: > 16 µg/mL
Activity [37]: 0%
Activity [38]: 100%
Activity [39]: 92.3%
Activity [40]: 0%
Activity [41]: 100%
Activity [42]: 100%
MIC50 [43]: 0.25 µg/mL (≈ 0.835 µM)
MIC90 [43]: 0.5 µg/mL (≈ 1.67 µM)
Activity [44]: 97.1%

CC(C)(O/N=C(\C(=O)N[C@@H]1C(=O)N2C(C(=O)[O-])=C(C[n+]3ccccc3)CS[C@H]12)c1csc(N)n1)C(=O)O [CEFTAZIDIME]
MIC50 [1]: 8 µg/mL (≈ 14.6 µM)
MIC90 [1]: 8 µg/mL (≈ 14.6 µM)
Activity [2]: 0%
MIC50 [4]: 0.06 µg/mL (≈ 0.11 µM)
MIC90 [4]: 4 µg/mL (≈ 7.32 µM)
MIC50 [5]: 0.06 µg/mL (≈ 0.11 µM)
MIC90 [5]: 0.12 µg/mL (≈ 0.22 µM)
MIC50 [6]: > 32 µg/mL
MIC90 [6]: > 32 µg/mL
MIC [8]: ≤ 1 µg/mL
MIC50 [8]: ≤ 1 µg/mL
MIC90 [8]: ≤ 1 µg/mL
MIC50 [10]: > 32 µg/mL
MIC90 [10]: > 32 µg/mL
MIC50 [11]: > 32 µg/mL
MIC90 [11]: > 32 µg/mL
Activity [12]: 100%
Activity [13]: 100%
MIC [14]: > 32 µg/mL
MIC50 [14]: > 32 µg/mL
MIC90 [14]: > 32 µg/mL
MIC50 [15]: 0.25 µg/mL (≈ 0.457 µM)
MIC90 [15]: 1 µg/mL (≈ 1.83 µM)
MIC50 [16]: 0.06 µg/mL (≈ 0.11 µM)
MIC90 [16]: 0.12 µg/mL (≈ 0.22 µM)
Activity [17]: 97%
Activity [18]: 93.8%
MIC50 [19]: > 32 µg/mL
MIC90 [19]: > 32 µg/mL
Activity [20]: 0%
Activity [45]: 100%
Activity [21]: 98.5%
Activity [22]: 100%
MIC50 [23]: > 32 µg/mL
MIC90 [23]: > 32 µg/mL
Activity [24]: 87.3%
Activity [25]: 0%
Activity [26]: 11%
Activity [27]: 91.4%
MIC [28]: ≤ 1 µg/mL
MIC50 [28]: ≤ 1 µg/mL
MIC90 [28]: ≤ 1 µg/mL
MIC50 [29]: 0.12 µg/mL (≈ 0.22 µM)
MIC90 [29]: 0.5 µg/mL (≈ 0.915 µM)
MIC50 [30]: 8 µg/mL (≈ 14.6 µM)
MIC90 [30]: > 32 µg/mL
Activity [31]: 98%
Activity [32]: 0%
MIC50 [33]: > 32 µg/mL
MIC90 [33]: > 32 µg/mL
MIC [34]: ≤ 1 µg/mL
MIC50 [34]: ≤ 1 µg/mL
MIC90 [34]: ≤ 1 µg/mL
MIC50 [35]: 16 µg/mL (≈ 29.3 µM)
MIC90 [35]: 32 µg/mL (≈ 58.5 µM)
MIC50 [36]: 32 µg/mL (≈ 58.5 µM)
MIC90 [36]: > 32 µg/mL
Activity [37]: 0%
Activity [38]: 0%
Activity [39]: 0%
Activity [40]: 0%
Activity [41]: 100%
Activity [42]: 100%
MIC50 [43]: 0.06 µg/mL (≈ 0.11 µM)
MIC90 [43]: 0.12 µg/mL (≈ 0.22 µM)
Activity [44]: 0%
